What was measured:
Smo::EGFP [1] = target: T1, Smo::EGFP (Homo sapiens, UniProt Q99835); test: FA promoted accumulation of Smo in the PC, inhibition by Smo antagonists; type: cell-based; settings: FA-induced
T1 construct: expressed in transfected cells
Procedure: (§1) Cells were cultured and treated in 384-well imaging plate precoated with poly-D-Lysine (Greiner Bio-one), fixed with 4% paraformaldehyde (Electron Microscopy Sciences), and stained with Hoechst (Invitrogen). Images were collected using Opera High Content Screening System (Perkin Elmer). ActivityBase (IDBS), Pipeline Pilot (Accelrys), Excel (Microsoft), and Prism (GraphPad) were used for high content screening data management and analysis. Acapella 2.0 software (Evotec Technologies/PerkinElmer) was used to perform multi-parametric image quantification. All the comparative images were scanned with identical microscopic setting and analyzed with the same input parameters.

[2] = system: Hh pathway activation induced by loss of suFU; test: Gli-luciferase assay in suFU−/− mouse embryonic fibroblasts; type: cell-based; settings: suFU−/− cells
Procedure: (§2) Hh activity assays were performed using ShhLightll cells, Smo/Lightll cells, SmoM2/Lightll cells, and suFU−/− mouse embryonic fibroblasts. In the suFU−/− cells, Hh activity was measured after co-transfection with Gli driven firefly luciferase and TK-renilla luciferase reporters^41. Wnt activity was measured in 293 cells co-transfected with Top-flash and TK-renilla luciferase reporters^42. Cells were cultured and treated in 96 well assay plates (Corning) and incubated with Duo-Glo luciferase substrates (Promega) to measure firefly and renilla luciferase activity sequentially using a Top Count NX Microplate Scintillation and Luminescence Counter (Perkin Elmer). The renilla luciferase signal was used to normalize the firefly reporter activity.
ShhLightII cells and SmoM2/LightII cells were cultured and treated in 96 well assay plates (Corning) and incubated with Duo-Glo luciferase substrates (Promega) to sequentially measure firefly and renilla luciferase activity. […] Wnt activity was measured following co-transfection of a Top-flash and renilla luciferase reporter. […] Luciferase signal was read by TopCount NX Microplate Scintillation and Luminescence Counter (Perkin Elmer). Quantitative PCR probes for Ptch1, Gli1, and β-actin were purchased from Applied Biosystems. […]

SmoM2::GFP = target: T2, SmoM2::GFP (Homo sapiens, UniProt Q99835, W535L); test: Ciliary localization of SmoM2::GFP (3T3/SmoM2::GFP Overexpression/Ivs::tagRFPT); type: cell-based; settings: SmoM2::EGFP overexpressing cells
T2 construct: expressed in transfected cells
T2 sequence (Q99835 28-787 W535L): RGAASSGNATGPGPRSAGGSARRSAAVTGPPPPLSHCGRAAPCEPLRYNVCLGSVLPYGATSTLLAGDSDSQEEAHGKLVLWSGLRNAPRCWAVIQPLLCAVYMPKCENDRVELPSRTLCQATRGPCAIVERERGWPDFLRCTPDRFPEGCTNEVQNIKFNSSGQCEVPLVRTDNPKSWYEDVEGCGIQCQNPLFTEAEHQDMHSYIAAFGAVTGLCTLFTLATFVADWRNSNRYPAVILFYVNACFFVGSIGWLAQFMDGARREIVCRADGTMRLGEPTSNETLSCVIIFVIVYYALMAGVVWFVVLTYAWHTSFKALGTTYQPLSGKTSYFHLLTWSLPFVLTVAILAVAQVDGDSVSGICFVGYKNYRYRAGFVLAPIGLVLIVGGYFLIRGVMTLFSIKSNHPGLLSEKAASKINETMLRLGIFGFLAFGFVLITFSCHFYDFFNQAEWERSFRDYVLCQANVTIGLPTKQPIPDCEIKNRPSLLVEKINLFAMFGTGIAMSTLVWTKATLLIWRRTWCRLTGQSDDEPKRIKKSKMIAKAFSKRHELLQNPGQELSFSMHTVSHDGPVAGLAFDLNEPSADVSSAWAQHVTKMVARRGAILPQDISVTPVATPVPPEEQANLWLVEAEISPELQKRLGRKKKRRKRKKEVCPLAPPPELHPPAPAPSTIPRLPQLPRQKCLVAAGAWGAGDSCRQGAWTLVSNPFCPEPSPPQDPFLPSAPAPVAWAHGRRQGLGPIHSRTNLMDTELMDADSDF
Text: (§3) NIH/3T3 cells were maintained in DMEM containing 10% (v/v) calf serum, penicillin, streptomycin, and L-glutamine. HEK293, L, cos 7, and suFU−/− mouse embryonic fibroblast cells were maintained in DMEM containing 10% (v/v) fetal bovine serum, penicillin, streptomycin, and L-glutamine. Smo::EGFP, SmoM2::GFP, and Ivs::tagRFPT were cloned into pBabe to generate retroviral particles for infection. Smo::EGFP/Ivs::tagRFPT and SmoM2::GFP/Ivs::tagRFPT stable cell lines were generated through viral infection of NIH/3T3^12. A ShhLightII Gli reporter cell line was obtained from the American Type Culture Collection (ATCC) and used in luciferase reporter assays to measure Hh pathway activity. The cell line contains a stably integrated Gli-responsive Firefly luciferase reporter and a constitutive Renilla luciferase expression construct^33. Subclones expressing Smo or SmoM2 in ShhLightII cells were used for chemical epistasis analyses.
as §1, with “Activityl)ase (IDBS Inc, Emeryvill, Calif.) and” for “ActivityBase (IDBS),”, “(Accelrys, Inc. San Diego, Calif.)” for “(Accelrys), Excel (Microsoft), and Prism (GraphPad)”, “multi-parametrical high content” for “multi-parametric”, “the” for “the comparative”, “images for comparison” for “images”, “settings” for “setting”
(§4) Acapella 2.0 software (Evotec Technologies/PerkinElmer) was used to perform multi-parametric high content image quantification. Our image analysis script used Ivs::tagREPT to first determine the location of the PC and then Smo::EGFP to quantify the level of Smo present in the cilium.

Hh pathway activity [3] = test: Priming and withdrawal of compound followed by Shh stimulation, Gli-luciferase reporter (hypersensitivity); type: cell-based; settings: priming 24 hours, washout, then Shh (or SAG) stimulation
Procedure: as §2
Following the removal of drug containing medium, and extensive washing, cells were stimulated with either Hh ligand, or the direct-binding Smo agonist SAG^17,18.
(§5) ShhLightII cells and SmoM2/LightII cells were cultured and treated in 96 well assay plates (Corning) and incubated with Duo-Glo luciferase substrates (Promega) to sequentially measure firefly and renilla luciferase activity. Smo, or GFP, expression plasmids were co-transfected into 3T3 cells together with a Gli-responsive firefly reporter and a TK-renilla luciferase reporter contruct to monitor effects of Smo overexpression. Co-transfection of the two reporter constructs was conducted in assays measuring Hh pathway activity in suFU−/− cells. Wnt activity was measured following co-transfection of a Top-flash and renilla luciferase reporter. In both Hh and Wnt activity assays, renilla luciferase reporter activity, or mass of protein, was used to normalize expression values. Luciferase signal was read by TopCount NX Microplate Scintillation and Luminescence Counter (Perkin Elmer). Quantitative PCR probes for Ptch1, Gli1, and β-actin were purchased from Applied Biosystems. Reactions and measurements were performed using on an Applied Biosystems 7900HT at Harvard FAS Center of System Biology. β-actin was used to normalize Ptch1 and Gil1 values.

Hh pathway activity [4] = test: Gli-luciferase reporter assay, Shh-induced Hh pathway activity (ShhLightII cells); type: cell-based; settings: Gli-luciferase induction and Smo ciliary localization; 10 μM FA
Text: as §3, §2, §5

SmoM2 = test: Gli-luciferase reporter induced by SmoM2::GFP overexpression (SmoM2/LightII cells); type: cell-based; settings: SmoM2 versus wild-type Smo
Text: as §3, §2, §5

Smo::EGFP [5] = target: T1, Smo::EGFP; test: High content assay of Shh-induced Smo::EGFP accumulation in the primary cilium (Smo::EGFP/Ivs::tagRFPT NIH/3T3 cells); type: cell-based; settings: in the presence of Shh
Text: as §3
as §1, with “Activityl)ase (IDBS Inc, Emeryvill, Calif.) and” for “ActivityBase (IDBS),”, “(Accelrys, Inc. San Diego, Calif.)” for “(Accelrys), Excel (Microsoft), and Prism (GraphPad)”, “multi-parametrical high content” for “multi-parametric”, “the” for “the comparative”, “images for comparison” for “images”, “settings” for “setting”
as §4
The inventors used the spot-finding algorithm in the RFP channel to find Ivs-rich spots. Each non-overlapping spot was based on a maximum 8 pixel-radius (when using a 40× objective) around a central intensity peak of 5 pixels. A distance of at least 10 pixels was required between adjacent spot centers. Spot peaks had to exceed thresholds of relative intensity compared to the remaining body of the spot as well as to the entire image. The average, maximum and total RFP intensity of each spot were measured. The spots with sufficiently high absolute maxima to pass the selected threshold were classified as positive spots. To form candidate cilia, the inventors selected the brightest 15% of the pixels in each positive spot and merged those pixels into objects so that the brightest parts of adjacent spots could form single, larger cilia-shaped objects. To qualify the candidate cilia as true Ivs-positive cilia, the width of the objects created from merging the brightest pixels in each spot had to be at least 2 pixels and the length to half-width ratio had to exceed 3. (i.e. a 3-pixel long by 2-pixel wide cilium was the minimum accepted cilium size and the length had to be at least 1.5 fold of the width). The mean GFP intensity within these Ivs-positive cilia was used to estimate the ciliary level of Smo protein. The inventors subtracted the background of the mean GFP intensity in the 3-pixel wide area around each candidate cilium to avoid some false positives. Those Ivs-positive cilia that exceed the final mean GFP intensity threshold set for each experiment were deemed Smo-positive cilia.
Hoechst staining was used to determine the total number of nuclei per well.
Measurements of the geometry of the cilia as well as the total fluorescent intensities of each cilium in the Smo- and Ivs-channels were used to determine if any of the compounds were having unusual effects on cilia size, intensity or frequency of observation or combinations of all three characteristics.

Smo::EGFP [6] = target: T1, Smo::EGFP; test: Cyc-induced Smo ciliary accumulation (Smo::EGFP/Ivs::tagRFPT cells); type: cell-based; settings: 5 μM Cyc
Procedure: as §1, with “Activityl)ase (IDBS Inc, Emeryvill, Calif.) and” for “ActivityBase (IDBS),”, “(Accelrys, Inc. San Diego, Calif.)” for “(Accelrys), Excel (Microsoft), and Prism (GraphPad)”, “multi-parametrical high content” for “multi-parametric”, “the” for “the comparative”, “images for comparison” for “images”, “settings” for “setting”
as §4

[7] = human cancer patients, after a single high dose; cited from earlier work
Smo = test: Bodipy-cyclopamine competition assay in Cos 7 cells expressing Smo; type: binding; settings: cells over-expressing Smo, 5 nM Bodipy-cyclopamine
Procedure: Cos 7 cells were transfected with a plasmid co-expressing Smo and a nuclear localized form of tagRFPT (pCIT-Smo). An empty parental construct (pCIT), and a construct that co-expresses SmoM2, were used as controls to assess specificity and background noise. Three days after transfection, cells were incubated with 5 nM Bodipy-cyclopamine, with or without other compounds for 1 hour at 37 °C. Cells were washed, fixed and stained with Hoechst. Images were collected by an Opera High Content Screen System. Bodipy fluorescence was quantified specifically for transfected cells (determined by red tagRFPT+ nucleus) using a program developed by the authors with Acapella 2.0 software. All of the images were scanned with identical microscopic settings and analyzed with the same input parameters.
Cos 7 cells were transfected with a plasmid that co-expresses Smo and a nuclear localized tagRFPT marker (pCIT-Smo). The empty parental construct (pCIT) and a construct that co-express SmoM2 were used as controls to assess specificity and background signal. Three days after transfection, cells were incubated with 5 nM Bodipy-cyclopamine, with or without additional compounds, for 1 hour at 37° C. Cells were then fixed and stained with Hoechst. Images were collected with the Opera High Content Screen System. Fluorescence values were assessed in transfected cells (red nuclei) with a program developed by the authors using Acapella 2.0 software. All of images were scanned with identical microscopic setting and analyzed with the same input parameters.

Hh pathway activity [8] = test: Gli-luciferase reporter assay, Hh pathway activation by compound alone (NIH/3T3 cells); type: cell-based; settings: FA at high concentrations
Procedure: as §5

T1 sequence (Q99835 28-787): as the sequence (Q99835 28-787 W535L) above, with L508W counted along it

effect on FA promoted accumulation of Smo in the PC (Smo::EGFP [1]) | effect on Hh pathway activation induced by loss of suFU [2] | effect on SmoM2 ciliary localization (SmoM2::GFP) | hypersensitivity to Hh pathway stimulation after priming with and removal of compound, Gli-luciferase (Hh pathway activity [3]) | IC50's for SmoM2 relative to IC50's for wildtype Smo (SmoM2) | effect on Cyc induced Smo cilial accumulation (Smo::EGFP [6]) | SMILES | Hh pathway inhibition by the antagonist in the presence of FA (Hh pathway activity [4]) | inhibition of Shh-induced Smo::EGFP accumulation in the PC (Smo::EGFP [5]) | peak plasma concentration [7] | competition of Bodipy-Cyc binding to Smo (Smo) | effect on FA induced activation of the Hh pathway (Hh pathway activity [8])
inhibit | does not alter | did not alter SmoM2 ciliary accumulation | no enhancing activity | at least an order of magnitude higher | effectively compete with Cyc | CS(=O)(=O)c1ccc(C(=O)Nc2ccc(Cl)c(-c3ccccn3)c2)c(Cl)c1 [GDC0449] | dramatically reduced | specifically inhibited Smo::EGFP accumulation in the PC |  |  | 
 |  |  |  |  |  | C[C@@H]1C[C@H]2[C@@H]3CCC4=CC(=O)C=C[C@]4(C)[C@@]3(F)[C@@H](O)C[C@]2(C)[C@@]1(O)C(=O)CO [Dexamethasone] |  |  | > 10 µM |  | 
inhibit |  | did not alter SmoM2 ciliary accumulation |  | at least an order of magnitude higher | effectively compete with Cyc | Cc1nn(-c2ccccc2)c(C)c1/C=N/N1CCN(Cc2ccccc2)CC1 [SANT-1] | dramatically reduced | specifically inhibited Smo::EGFP accumulation in the PC |  | effective competitor | blocked
